Measured values: US6638531B1, “Antimicrobial peptides” (priority 1998, dated 2003)
Where two headings read alike, the source gives them in different places. Marks after values point to notes of the source that are not given here. Where no end group is shown, it is not given here.

Assays:
Format in all cases: cell-based
[1] = system: Candida albicans; experiment: Growth inhibition on agar with spotted peptide; design: key: “+” designates full growth inhibition; “+/−” designates partial inhibition; “−” signifies no inhibition; details: C. albicans on agar, 10 μg peptide spotted
Description: (§1) The growth of the yeast Candida albicans, Torulopsis glabrata and meticillin-resistant Staphylococcus aureus (MRSA) was tested by growing them on agar on which 10 μg of each of the peptides according to the invention was spotted. […] “+” designates full growth inhibition, “+/−” designates partial inhibition and “−” signifies no inhibition.

[2] = system: Torulopsis glabrata; experiment: Growth inhibition on agar with spotted peptide; design: key: “+” designates full growth inhibition; “+/−” designates partial inhibition; “−” signifies no inhibition; details: T. glabrata on agar, 10 μg peptide spotted
Description: as §1

[3] = system: meticillin-resistant Staphylococcus aureus (MRSA); experiment: Growth inhibition on agar with spotted peptide; design: key: “+” designates full growth inhibition; “+/−” designates partial inhibition; “−” signifies no inhibition; details: 10 μg peptide spotted
Description: as §1

[4] = system: Lactobacillus rhamnosus; experiment: Inhibition of lactic acid production; details: L. rhamnosus; 1 hour in 10 mM PPB with glucose
Description: (§2) All peptides according to the invention were tested for their capacity to inhibit the lactic acid production of the bacteria Streptococcus sanguis, Streptococcus mutans, Streptococcus salivarius and Lactobacillus rhamnosus. The formation of lactic acid is a measure for the metabolic activity. For this purpose cultures of bacteria cells were incubated for 1 hour in 10 mM PPB with 0.5 glucose and different concentrations of the peptides. The formation of lactic acid was monitored by means of spectrophotometry.

[5] = system: Streptococcus mutans; experiment: Inhibition of lactic acid production; details: S. mutans; 1 hour in 10 mM PPB with glucose
Description: as §2

[6] = system: Streptococcus salivarius; experiment: Inhibition of lactic acid production; details: S. salivarius; 1 hour in 10 mM PPB with glucose
Description: as §2

[7] = system: Streptococcus sanguis; experiment: Inhibition of lactic acid production; details: S. sanguis; 1 hour in 10 mM PPB with glucose
Description: as §2

[8] = system: artificial oral biofilm of seven oral aerobic and anaerobic types of bacteria; experiment: Antibacterial activity in an artificial oral biofilm; details: for inhibition at 35 ppm / inhibition at 200 ppm: po; for % reduction in viability counts, total Gram-negative average (s.d.) / % reduction in viability counts, total aerobic average / % reduction in viability counts, total anaerobic average: 0.5 h, pH 7
Description: An artificial oral biofilm was made by placing hydroxyapatite discs for five days in a continuous culture system of seven oral aerobic and anaerobic types of bacteria (Streptococcus mutans, Streptococcus sanpuis, Streptococcus salivarius, Actinomyces naeslundii, Veillonella parvula, Prevotella intermedia and Fusobacterium nucleatum) The discs with the biofilm formed thereon were subsequently incubated for half an hour with different concentrations of peptide in 10 mM potassium phosphate buffer, pH 7.0. The biofilm was then sonicated from the discs, diluted in PBS and plated out on semi-selective agar plates. The total […] were counted (Streptococci+Actinomyces) on aerobic incubated blood agar plates, the total Gram-negative counts (Veilonella, Fusobacterium and Prevotella) on vancomycin-containing plates and the total counts on the anaerobic incubated blood agar.

[9] = system: bacteria collected from plaque; experiment: Antimicrobial activity on oral bacteria; details: po
Excerpt: (§3) In order to determine whether the peptides according to the invention are also active against bacteria such as are encountered in the mouth, bacteria were collected from saliva and plaque. Saliva was shaken on a vortex mixer and centrifuged.

[10] = system: bacteria collected from saliva; experiment: Antimicrobial activity on oral bacteria; details: po
Excerpt: as §3

[11] = system: bacteria from cultured plaque; experiment: Antimicrobial activity on oral bacteria; details: po
Excerpt: as §3

[12] = system: bacteria from disrupted plaque; experiment: Antimicrobial activity on oral bacteria; details: po
Excerpt: as §3

[13] = read-out: % reduction in viability counts, total Gram-negative average (s.d.)
[14] = read-out: % reduction in viability counts, total aerobic average
[15] = read-out: % reduction in viability counts, total anaerobic average
[16] = read-out: % reduction in viability counts, total Gram-negative average

Compound	growth inhibition [1]	growth inhibition [2]	growth inhibition [3]	inhibition of lactic acid production [4]	inhibition of lactic acid production [5]	inhibition of lactic acid production [6]	inhibition of lactic acid production [7]	further results
KRKFHEKHHSHRGY [dh-5, C-terminal part of histatin 5, reference compound]	−	−	−	− (“−” signifies no inhibition of lactic acid formation at >100 μg/ml peptide)	− (“−” signifies no inhibition of lactic acid formation at >100 μg/ml peptide)	− (“−” signifies no inhibition of lactic acid formation at >100 μg/ml peptide)	− (“−” signifies no inhibition of lactic acid formation at >100 μg/ml peptide)	
KRLFKELLKSLRKY [peptide 6]	+	+		+ (“+” designates full inhibition at 4-20 μg/ml peptide)	+ (“+” designates full inhibition at 4-20 μg/ml peptide)	+ (“+” designates full inhibition at 4-20 μg/ml peptide)	+ (“+” designates full inhibition at 4-20 μg/ml peptide)	
KRLFKELKKSLRKY [peptide 5]	+	+		+ (“+” designates full inhibition at 4-20 μg/ml peptide)	+ (“+” designates full inhibition at 4-20 μg/ml peptide)	+ (“+” designates full inhibition at 4-20 μg/ml peptide)	+ (“+” designates full inhibition at 4-20 μg/ml peptide)	
[H]/N=C(\N/C(=N/[H])NCCCCCCNC(=N)NC(=N)Nc1ccc(Cl)cc1)Nc1ccc(Cl)cc1 [Chlorhexidine]								inhibition at 35 ppm [8, 13]: 68.3%; inhibition at 200 ppm [8, 13]: 99.9%; inhibition at 35 ppm [8, 14]: 39%; inhibition at 200 ppm [8, 14]: 99.9%; inhibition at 35 ppm [8, 15]: 38.4%; inhibition at 200 ppm [8, 15]: 99.9%; inhibition at 50 ppm [9, 16]: 99.7%; inhibition at 50 ppm [9, 14]: 99.7%; inhibition at 50 ppm [9, 15]: 99.7%; inhibition at 50 ppm [10, 16]: > 99.9%; inhibition at 50 ppm [10, 14]: > 99.9%; inhibition at 50 ppm [10, 15]: > 99.9%; inhibition at 50 ppm [11, 16]: > 99.9%; inhibition at 50 ppm [11, 14]: > 99.9%; inhibition at 50 ppm [11, 15]: > 99.9%; inhibition at 50 ppm [12, 16]: > 99.9%; inhibition at 50 ppm [12, 14]: 99.7%; inhibition at 50 ppm [12, 15]: 99%
KRLFKELLFSLRKY [peptide 4]	+	+	+/−	+ (“+” designates full inhibition at 4-20 μg/ml peptide)	+ (“+” designates full inhibition at 4-20 μg/ml peptide)	+ (“+” designates full inhibition at 4-20 μg/ml peptide)	+ (“+” designates full inhibition at 4-20 μg/ml peptide)	
OOLFOELLOSLOOY [peptide 8]	+	+		+ (“+” designates full inhibition at 4-20 μg/ml peptide)	+ (“+” designates full inhibition at 4-20 μg/ml peptide)	+ (“+” designates full inhibition at 4-20 μg/ml peptide)	+ (“+” designates full inhibition at 4-20 μg/ml peptide)	
OOLFOELOOSLOOY [peptide 7]	+	+		+ (“+” designates full inhibition at 4-20 μg/ml peptide)	+ (“+” designates full inhibition at 4-20 μg/ml peptide)	+ (“+” designates full inhibition at 4-20 μg/ml peptide)	+ (“+” designates full inhibition at 4-20 μg/ml peptide)	
KRLFKELLFSLRKY-amide (KRLFKELLFSLRKY-NH2) [peptide 13]	+	+		+ (“+” designates full inhibition at 4-20 μg/ml peptide)	+ (“+” designates full inhibition at 4-20 μg/ml peptide)	+ (“+” designates full inhibition at 4-20 μg/ml peptide)	+ (“+” designates full inhibition at 4-20 μg/ml peptide)	
LLLFLLKKRKKRKY [peptide 11]	+	+	+	+ (“+” designates full inhibition at 4-20 μg/ml peptide)	+ (“+” designates full inhibition at 4-20 μg/ml peptide)	+ (“+” designates full inhibition at 4-20 μg/ml peptide)	+ (“+” designates full inhibition at 4-20 μg/ml peptide)	
KRLFKELKFSLRKY-amide (KRLFKELKFSLRKY-NH2) [peptide 12]	+	+		+ (“+” designates full inhibition at 4-20 μg/ml peptide)	+ (“+” designates full inhibition at 4-20 μg/ml peptide)	+ (“+” designates full inhibition at 4-20 μg/ml peptide)	+ (“+” designates full inhibition at 4-20 μg/ml peptide)	
KRLFKKLKFSLRKY-OH [peptide 9, KRLFKKLKFSLRKY]	+	+	+	+ (“+” designates full inhibition at 4-20 μg/ml peptide)	+ (“+” designates full inhibition at 4-20 μg/ml peptide)	+ (“+” designates full inhibition at 4-20 μg/ml peptide)	+ (“+” designates full inhibition at 4-20 μg/ml peptide)	% reduction in viability counts, total Gram-negative average (s.d.) ([8]; 10 μg/ml): 51.0 (32.0)* %; % reduction in viability counts, total aerobic average ([8]; 10 μg/ml): −67.4%; % reduction in viability counts, total anaerobic average ([8]; 10 μg/ml): −66.2%; % reduction in viability counts, total Gram-negative average (s.d.) ([8]; 100 μg/ml): 30.6 (104.4)* %; % reduction in viability counts, total aerobic average ([8]; 100 μg/ml): 78.7%; % reduction in viability counts, total anaerobic average ([8]; 100 μg/ml): 51.2%; % reduction in viability counts, total Gram-negative average (s.d.) ([8]; 250 μg/ml): 53.3 (70.7) %; % reduction in viability counts, total aerobic average ([8]; 250 μg/ml): 64.8%; % reduction in viability counts, total anaerobic average ([8]; 250 μg/ml): 61.2%; % reduction in viability counts, total Gram-negative average (s.d.) ([8]; 500 μg/ml): 96.9 (0.85)* %; % reduction in viability counts, total aerobic average ([8]; 500 μg/ml): 96.6%; % reduction in viability counts, total anaerobic average ([8]; 500 μg/ml): 93.2%
